Experimental data published in ChEMBL document CHEMBL5465560, “Selectivity Literature for EUbOPEN Chemogenomic Library” (2024).

Columns and labels:
[1] = target: T1, Serine/threonine-protein kinase LATS2 (Homo sapiens) (UniProt Q9NRM7); test: Selectivity interaction (KinomeScan (DiscoverX)) EUB0000092b LATS2; conditions: at 10 µM
T1 sequence (whole entry): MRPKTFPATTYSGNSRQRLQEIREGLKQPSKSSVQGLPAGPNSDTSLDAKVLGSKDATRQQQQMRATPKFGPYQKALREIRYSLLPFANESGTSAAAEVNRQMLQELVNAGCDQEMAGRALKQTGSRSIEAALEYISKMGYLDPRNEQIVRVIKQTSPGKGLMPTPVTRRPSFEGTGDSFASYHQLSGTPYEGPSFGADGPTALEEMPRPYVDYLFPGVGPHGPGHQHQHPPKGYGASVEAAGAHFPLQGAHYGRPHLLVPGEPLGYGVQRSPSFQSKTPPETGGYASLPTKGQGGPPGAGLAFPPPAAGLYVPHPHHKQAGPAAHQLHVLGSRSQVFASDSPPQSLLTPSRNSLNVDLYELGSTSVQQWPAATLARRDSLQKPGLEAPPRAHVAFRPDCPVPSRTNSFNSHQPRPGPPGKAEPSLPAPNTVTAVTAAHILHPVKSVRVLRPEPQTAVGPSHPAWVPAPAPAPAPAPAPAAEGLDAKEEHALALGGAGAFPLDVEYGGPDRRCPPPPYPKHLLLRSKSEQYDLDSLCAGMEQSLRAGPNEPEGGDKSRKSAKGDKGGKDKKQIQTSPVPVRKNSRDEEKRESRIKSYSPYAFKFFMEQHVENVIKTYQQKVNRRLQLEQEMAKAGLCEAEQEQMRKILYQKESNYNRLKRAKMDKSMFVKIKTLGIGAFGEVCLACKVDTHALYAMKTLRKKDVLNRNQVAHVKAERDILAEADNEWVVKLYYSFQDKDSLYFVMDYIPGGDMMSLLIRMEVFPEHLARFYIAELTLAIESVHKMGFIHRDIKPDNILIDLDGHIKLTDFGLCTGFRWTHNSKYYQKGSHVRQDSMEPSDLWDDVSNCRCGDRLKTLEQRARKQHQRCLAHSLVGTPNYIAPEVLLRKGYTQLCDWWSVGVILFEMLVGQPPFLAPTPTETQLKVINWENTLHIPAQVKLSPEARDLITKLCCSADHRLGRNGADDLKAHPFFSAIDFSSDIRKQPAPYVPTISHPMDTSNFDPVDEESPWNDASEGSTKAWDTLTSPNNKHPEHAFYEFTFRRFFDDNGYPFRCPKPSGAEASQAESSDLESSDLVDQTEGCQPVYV

[2] = target: T2, Inhibitor of nuclear factor kappa-B kinase subunit epsilon (Homo sapiens) (UniProt Q14164); test: Selectivity interaction (Ambit KINOMEscan and KiNATiv profiling in Jurkat cells) EUB0000090b IKBKE; format: cell-based; conditions: at 1 µM
T2 sequence (whole entry): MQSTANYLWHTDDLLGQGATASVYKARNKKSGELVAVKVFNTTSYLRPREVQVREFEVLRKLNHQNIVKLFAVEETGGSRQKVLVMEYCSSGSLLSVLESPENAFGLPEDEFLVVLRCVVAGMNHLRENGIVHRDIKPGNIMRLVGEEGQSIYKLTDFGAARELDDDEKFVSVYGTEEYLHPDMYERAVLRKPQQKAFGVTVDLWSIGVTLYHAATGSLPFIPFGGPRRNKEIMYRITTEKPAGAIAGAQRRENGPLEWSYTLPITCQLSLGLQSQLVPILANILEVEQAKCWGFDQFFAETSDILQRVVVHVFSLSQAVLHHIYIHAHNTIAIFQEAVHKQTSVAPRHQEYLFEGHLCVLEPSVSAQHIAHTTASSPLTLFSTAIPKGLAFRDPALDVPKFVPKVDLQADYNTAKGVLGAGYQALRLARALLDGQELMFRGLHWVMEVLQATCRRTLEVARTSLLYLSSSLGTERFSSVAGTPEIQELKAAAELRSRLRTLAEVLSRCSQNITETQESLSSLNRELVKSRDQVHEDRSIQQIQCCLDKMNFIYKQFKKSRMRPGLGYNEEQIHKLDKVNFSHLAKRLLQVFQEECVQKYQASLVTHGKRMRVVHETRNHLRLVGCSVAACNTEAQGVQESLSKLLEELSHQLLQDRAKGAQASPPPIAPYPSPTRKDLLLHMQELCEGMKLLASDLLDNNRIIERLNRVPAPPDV

[3] = target: Serine/threonine-protein kinase pim-1 (Homo sapiens, UniProt P11309)
[4] = target: T3, Mitogen-activated protein kinase kinase kinase 12 (Homo sapiens) (UniProt Q12852); test: Selectivity interaction (KinomeScan (DiscoverX)) EUB0000607a MAP3K12; conditions: at 10 µM
T3 sequence (whole entry): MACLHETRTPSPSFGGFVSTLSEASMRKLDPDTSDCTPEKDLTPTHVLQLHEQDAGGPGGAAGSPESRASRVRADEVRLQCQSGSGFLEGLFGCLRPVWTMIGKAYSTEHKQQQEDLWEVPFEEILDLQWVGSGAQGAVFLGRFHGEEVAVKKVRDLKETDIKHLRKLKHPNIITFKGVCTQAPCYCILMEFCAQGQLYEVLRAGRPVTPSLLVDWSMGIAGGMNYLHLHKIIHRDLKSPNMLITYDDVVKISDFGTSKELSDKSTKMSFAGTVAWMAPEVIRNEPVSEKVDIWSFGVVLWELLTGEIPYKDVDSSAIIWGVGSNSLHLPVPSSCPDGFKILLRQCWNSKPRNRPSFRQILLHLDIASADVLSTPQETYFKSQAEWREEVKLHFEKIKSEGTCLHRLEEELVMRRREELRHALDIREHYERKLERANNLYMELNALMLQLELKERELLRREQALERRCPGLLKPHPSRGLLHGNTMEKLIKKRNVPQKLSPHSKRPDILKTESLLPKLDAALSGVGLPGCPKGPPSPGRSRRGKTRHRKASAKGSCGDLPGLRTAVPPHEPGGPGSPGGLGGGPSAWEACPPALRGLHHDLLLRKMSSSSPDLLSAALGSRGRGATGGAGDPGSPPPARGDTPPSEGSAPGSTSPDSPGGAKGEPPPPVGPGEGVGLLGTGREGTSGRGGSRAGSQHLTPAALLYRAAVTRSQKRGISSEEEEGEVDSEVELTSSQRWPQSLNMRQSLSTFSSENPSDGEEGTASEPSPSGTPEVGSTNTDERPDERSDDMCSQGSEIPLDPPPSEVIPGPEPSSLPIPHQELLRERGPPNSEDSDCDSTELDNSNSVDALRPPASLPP

Serine/threonine-protein kinase pim-1, sequence (P11309 whole entry): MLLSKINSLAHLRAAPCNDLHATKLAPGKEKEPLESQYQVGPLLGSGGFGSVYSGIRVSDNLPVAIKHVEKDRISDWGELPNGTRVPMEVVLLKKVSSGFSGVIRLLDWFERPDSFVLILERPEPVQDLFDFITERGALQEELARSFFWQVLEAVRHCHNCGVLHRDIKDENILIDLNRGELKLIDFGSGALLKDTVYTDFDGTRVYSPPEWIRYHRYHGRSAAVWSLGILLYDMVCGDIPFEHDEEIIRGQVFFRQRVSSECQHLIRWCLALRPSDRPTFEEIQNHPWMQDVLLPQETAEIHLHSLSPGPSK

**Q.** `CCC(=O)N1CCN(c2ccc(-n3c(=O)ccc4cnc5ccc(-c6cnc7ccccc7c6)cc5c43)cc2C(F)(F)F)CC1` was tested. Which % of control [1] did it give?
**A.** The % of control was 100%.

**Q.** With `CN(C)C/C=C/C(=O)Nc1ccc(C(=O)N2CCCC(Nc3ncc(Cl)c(-c4c[nH]c5ccccc45)n3)C2)cc1` (centres undefined) as the compound, how does the % of control [2] read?
**A.** The % of control was 100%.

**Q.** How did the IC50 [3] turn out when `CCc1cccc(CC)c1NC(=O)c1nn(C)c2c1CCc1cnc(Nc3ccc(C(=O)NC4CCN(C)CC4)cc3OC(F)(F)F)nc1-2` was run?
**A.** The IC50 was > 10 µM.

**Q.** Which % of control [4] does the source give for `CNC(=O)Nc1ccc(-c2nc(N3CC4CCC(C3)O4)c3cnn(C4CCC5(CC4)OCCO5)c3n2)cc1` here?
**A.** Its % of control is 93%.
